Test results taken from the NIST ThermoML archive (doi:10.1016/j.jct.2017.12.023).

Assay: xn = mol fraction of the nth substance listed
Conditions: 100 kPa, Liquid; for viscosity: Concentric cylinders viscometry; for mass density: Vibrating tube method

CCOS(=O)(=O)[O-].CCn1cc[n+](C)c1 [1-ethyl-3-methylimidazolium ethyl sulfate] + CCCCCCO
Conditions	mass density, 288.15 K [kg/m3]	mass density, 293.15 K [kg/m3]	mass density, 298.15 K [kg/m3]	mass density, 303.15 K [kg/m3]	viscosity, 288.15 K [mPa·s]	viscosity, 293.15 K [mPa·s]	viscosity, 298.15 K [mPa·s]	viscosity, 303.15 K [mPa·s]
x1 = 0.1016	883.62	880.04	876.47	872.88	9.353	7.885	6.825	5.918
x1 = 0.2016	938.59	935.01	931.44	927.87	13.3	11.15	9.64	8.313
x1 = 0.3005	988.2	984.62	981.06	977.51	18.78	15.65	13.44	11.56
x1 = 0.3989	1033.38	1029.83	1026.28	1022.76	26.42	21.79	18.54	15.8
x1 = 0.4975	1075.01	1071.48	1067.96	1064.47	36.71	29.93	25.04	21.17
x1 = 0.5956	1113.22	1109.72	1106.23	1102.76	50.2	40.24	33.31	27.85
x1 = 0.6647	1138.48	1135	1131.53	1128.08	61.57	48.86	40.06	33.14
x1 = 0.7947	1182.52	1179.07	1175.63	1172.21	90.12	69.76	55.99	45.6
x1 = 0.897	1214.13	1210.7	1207.28	1203.87	117.32	90.21	71.04	57.05
x1 = 1	1243.07	1239.66	1236.27	1232.87	155.55	117.88	91.26	72.1
